Measurements reported in patent US20240366514A1, “PHARMACEUTICAL COMPOSITIONS OF OZANIMOD” (ZYDUS LIFESCIENCES LIMITED, priority 2021, published 2024).

Tested on: TNBS induced colitis model in rat
Assay: Pharmacodynamic (PD) study in TNBS induced colitis model in rat
Type: in vivo, Wistar rat male
Procedure: However, these differences in PK parameters were not observed in Pharmacodynamic (PD) study (Experiment 02) conducted in TNBS induced colitis model in rat. […] In this study, the efficacy parameters measured were colon weight to length ratio, colonic […] score (which includes sum of Adhesion score, Stricture score, Ulcer, Wall thickness) and Lymphocyte count. Colon weight to length ratio and macroscopic colon disease score were determined at the end of the study, whereas Lymphocyte count in circulation relative to vehicle treated TNBS challenged diseased animals (Vehicle control) was assessed 24 h after the last dose. […] The reasons for the similar efficacy response even at the differences in PK profile between both the formulations could be due to receptor saturation of S1P1 receptors overexpressed at the intestine at the dose of 1 mg/kg administered in both the treatment groups. […] The cardiac side effects such as Bradyarrhythmia and Atrioventricular Conduction Delays, which are associated with high Cmax from immediate-release formulation, get reduced or eliminated with the use of delayed-release formulation without affecting efficacy. Thus, the delayed-release formulation may also offer the skipping or reduce frequency of up-titration scheme.

## Nc1ccc(O)c(C(=O)O)c1 [Mesalamine]
24 h after the last dose, relative to vehicle treated TNBS challenged animals
  Lymphocyte count, % Inhibition (Mean ± SEM): 13.39 ± 21.66%
144 h, oral once a day for 6 days, IR 1 mg/kg, DR 0.89 mg/kg, Mesalamine 150 mg/kg, versus vehicle control, read-out: Colon Macroscopic Score, % Inhibition (Mean ± SEM)
  inhibition at 150 mg/kg: 56.5 ± 5.02%
circulating, 24 h after the last dose, IR 1 mg/kg, DR 0.89 mg/kg, Mesalamine 150 mg/kg oral for 6 days
  Lymphocyte count (10^3/μL), Observation (Mean ± SEM): 7.6 ± 1.9 10^3/μL
Oral once a day for 6 consecutive days, IR 1 mg/kg, DR 0.89 mg/kg, Mesalamine 150 mg/kg, end of study
  Colon Weight to Length ratio (mg/cm), Observation (Mean ± SEM): 120.44 ± 4.22 mg/cm
Oral once a day for 6 days, IR 1 mg/kg, DR 0.89 mg/kg, Mesalamine 150 mg/kg, end of study
  Colon Macroscopic Score [Sum of scores of Adhesion score, Stricture score, Ulcer, Wall thickness], Observation (Mean ± SEM): 2.5 ± 0.29
Oral once a day for 6 days, IR 1 mg/kg, DR 0.89 mg/kg, Mesalamine 150 mg/kg, versus vehicle control
  Colon Weight to Length ratio, % Inhibition (Mean ± SEM): 41.75 ± 2.04%
